Where no end group is shown, it is not given here.
Experiments:
HLA-A*0201 = target: T1, HLA-A*0201 (Homo sapiens, UniProt P04439, D140Y/D185E/D98H/E176V/E277Q/G131W/G231S/I119V/I121R/I166T/I218V/L300P/L318F/N151K/N90K/P208A/P217A/Q86G/Q94H/R138H/R169H/T345S); assay: Relative affinity (RA) of peptides for HLA-A*0201 on T2 cells, flow cytometry with BB7.2; format: binding; conditions: for affinity for HLA-A*0201 (in words): low affinity = RA>5 and DC50<2 hours; for RA (relative affinity for HLA-A*0201): ratio of peptide concentration to reference peptide (HIVpol 589) concentration inducing 20% of fluorescence obtained with 100 μM reference, T2 cells, lower RA = stronger binding
T1 construct: prevent the expression at their surface of newly synthesized HLA-A*0201 molecules; endogenous in cells; host or cells: human T2 cells (TAP-deficient)
Description: The affinity of the selected peptides for HLA-A*0201 was defined by two parameters: the relative affinity (RA); which reflects the ability of the peptides to bind to HLA-A*0201, and the rate of dissociation of the HLA-A*0201/peptide complexes (DC50), which reflects their stability. The peptides with high affinity (RA<5 and DC50>2 hours) are potentially immunogenic, unlike the peptides with low affinity (RA>5 and DC50<2 hours).
Human T2 cells (FIRAT et al., Eur. J. Immunol., 29, 3112, 1999) (3×10^5 cells/ml), which are deficient in TAP transporters, are incubated at 37° C. for 16 hours with various concentrations (100 μM, 10 μM, 1 μM, 0.1 μM) of each test peptide in serum-free RPMI 1640 medium supplemented with 100 ng/ml of human β2-microglobulin. Next, they are washed twice and labeled with the monoclonal antibody BB7.2 (PARHAM et al., Hum. Immunol., 3, 4, 277-299, 1981) which is specific for the HLA-A*0201 molecule, and then with a goat anti-mouse Ig antibody coupled to fluorescein isothiocyanate (FITC).
The cells are then analyzed by flow cytometry. For each concentration of peptide, the specific HLA-A*0201 fluorescence is calculated as a percentage of the fluorescence obtained with 100 μM of a reference peptide (HIVpol 589; […] (SEQ ID No: 1)). The relative affinity (RA) is defined as the ratio of the concentration of each peptide that induces 20% of the fluorescence obtained with 100 μM of the reference peptide, to the concentration of the reference peptide that induces 20% of the fluorescence obtained with 100 μM of said reference peptide. The lower the relative affinity, the stronger the binding of the peptide to HLA-A*0201. The mean RA for each peptide is determined from at least three independent experiments. In all the experiments, 20% of the maximum fluorescence was obtained for 1 to 3 μM of the reference peptide.
The relative affinity (RA) of the selected variant peptides for HLA-A*0201 was measured as described in example 1.

RMAS-HHD target cells = assay: Cytotoxicity assay with CTL lines 1R5 and 2R5 (HHD mice immunized with p911Y1V9) on peptide-loaded RMAS-HHD target cells; format: cell-based, murine; conditions: for CTL response (specific lysis) to RMAS-HHD cells loaded with the peptide: CTL lines 1R5 and 2R5 induced with p911Y1V9, 10 μM peptide
Description: Two CTL lines, called 1R5 and 2R5, were established from the spleen cells of HHD mice immunized with the variant peptide p911Y1V9, according to the same protocol as that described in example 1.
Cytotoxicity assays were carried out as described in example 2. For this, RMAS-HHD target cells loaded with 10 μM of the test peptides (variant or native peptides) were incubated in the presence of cells of the two CTL lines 1R5 and 2R5.
The percentage specific lysis values observed in the presence of the 1R5 (□) and 2R5 (▪) lines and for the various peptides tested are given in FIG. 5.

RMAS-HHD cells = assay: Intracellular IFNγ production of CTL line 1R5 with peptide-loaded RMAS-HHD cells; format: cell-based, murine; conditions: for response of CD8+ cells of CTL line 1R5 to RMAS-HHD cells loaded with the peptide: intracellular IFNγ production
Description: The response of the cells of the CTL line 1R5 with respect to the RMAS-HHD cells loaded with the various peptides was also evaluated by assaying the intracellular IFNγ production.
For this, the cells of the CTL line 1R5 are incubated in the presence of RMAS-HHD cells loaded with the variant peptide p911Y1V9, the native peptides HER1 911, HER2,3 911 or HER4 911, or an irrelevant peptide, and in the presence of 20 μg/ml of Brefeldine-A (Sigma). After 6 hours, the cells are washed, labeled with an anti-CD8 antibody conjugated to r-phycoerythrin, and incubated in PBS for 25 min at 4° C. They are then again washed, before being fixed with a 4% paraformaldehyde solution. The cells are then permeabilized with saponin (Sigma) at 0.2% in PBS, and labeled with an anti-IFNγ monoclonal antibody conjugated to allophycocyanin (Pharmingen).
(§1) The cells are then analyzed by flow cytometry (FACSCalibur™ (Becton Dickinson) and CellQuest™ software).

HHD transgenic mice = assay: Induction of specific CTLs in HHD transgenic mice by immunization with variant MAGE-A peptides; 51Cr cytotoxicity on peptide-loaded RMAS-HHD targets; format: in vivo; conditions: for recognition of RMAS-HHD targets loaded with the native peptide by CTLs induced with the corresponding variant: native peptide loaded on targets
Description: The immunogenicity of the variant peptides p174Y1V10, p262L2 and p248V9 was evaluated by generation of CTLs on HHD transgenic mice (PASCOLO et al., J. Exp. Med., 185, 2043, 1997). These mice are β2m−/−, D^b−/− and express an HLA-A*0201 single chain made up of the α1 and α2 domains of HLA-A*0201 and the α3 and intracellular domains of D^b, linked via its N-terminal to the C-terminal of human β2-microglobulin, via a peptide of 15 amino acids.
The HHD mice are given a subcutaneous injection at the base of the tail with 100 μg of each variant peptide to be tested, emulsified in Freund's incomplete adjuvant, in the presence of 140 μg of a T-helper epitope derived from the HBV “core” antigen (128-140, sequence […]).
After 11 days, spleen cells taken from the mice (5×10^7 cells in 10 ml) are stimulated in vitro with the test peptide (10 μM). On the 6th day of culture, the populations which respond are tested in order to determine a specific cytotoxicity. The cells which respond are restimulated in vitro at one-week intervals with 2×10^7 irradiated (3000 rads) HHD spleen cells and 1 to 0.1 μM of peptide in the presence of 50 IU/ml of recombinant IL2 (Proleukin, Chiron Corp).
Cytotoxicity assays are carried out 6 days after the final stimulation.
RMAS-HHD cells are used as targets to study the cytotoxicity. The cells are obtained by transfection of murine RMAS cells with the HHD construct as described by PASCOLO et al. (J. Exp. Med., 185, 2043, 1997).
These target cells are labeled with 100 μCi of ^51Cr for 90 minutes, and then washed three times and plated out in round-bottomed 96-well plates (3×10^3 cells/well in 100 μl of RPMI 1640+3% of fetal calf serum). They are loaded with various concentrations of test peptide (variant, native peptide, or irrelevant control peptide), at 37° C. for 90 minutes.
Next, 100 μl of the effector cells (effector cell/target cell ratio=40/1) are added to the wells and the plates are incubated at 37° C. for 4 hours. After incubation, 100 μl of supernatant are collected and the radioactivity is measured in a γ-counter.
The percentage of specific lysis is calculated by means of the formula: [(experimental ^51Cr release−spontaneous ^51Cr release)/(maximum ^51Cr release−spontaneous ^51Cr release)]×100. In all the experiments, the spontaneous release is less than 20% of the maximum release induced with 3N HCl.

[1] = system: CD8+ cells from normal donors; assay: Induction of specific human CTLs in vitro from PBMCs of normal donors with p248V9, intracellular IFNγ production; format: cell-based; conditions: intracellular IFNγ production
Description: The ability of p248V9 to induce CTLs in vitro using peripheral blood mononuclear cells (PBMCs) from normal donors was tested as follows.
The PBMCs are obtained, from blood samples taken by leukocytapheresis on normal donors, after centrifugation at 2000 rpm for 20 min on a Ficoll/Hypaque (Amersham) gradient. After 3 washes in 0.9% NaCl, they are resuspended in complete medium (RPMI 1640 supplemented with 10% of heat-inactivated human AB serum, 40 μg/ml of gentamicin (Panpharma) and […] of L-glutamine (Gibco)), and incubated at 37° C. for 2 hours. After incubation, the non-adherent cells are removed. The adherent cells are differentiated into dendritic cells by culturing in a Teflon bag in a proportion of 3×10^6 cells/ml in complete medium supplemented with 500 IU/ml of GM-CSF (R & D Systems) and 500 IU/ml of IL-4 (R & D Systems). On the seventh day, maturing agents (100 ng/ml of polyI:C and 2 μg/ml of anti-CD40 antibody) are added to the culture. After 24 hours, the mature dendritic cells are loaded with the peptide p248V9 by incubation for 2 hours with 10 μM of peptide in the presence of 5 μg/ml of β2-microglobulin, and then irradiated at 3500 rads; they are then washed in order to remove the free peptide. CD8+ cells are isolated from the non-adherent cells by means of microbeads coupled to an anti-CD8 antibody (Miltenyi Biotec).
2×10^5 CD8+ cells are stimulated with 2×10^4 dendritic cells loaded with the peptide, in complete medium supplemented with 1000 IU/ml of IL-6 and 5 IU/ml of IL-12 in a final volume of 100 μl/well in a 96-well plate. From the seventh day, the cultures are stimulated in vitro each week with the dendritic cells loaded with the peptide, in the presence of 20 IU/ml of IL-2 and 10 ng/ml of IL-7. After the third restimulation, the CD8+ cells are collected and stimulated with EBV-transformed HLA-A*0201 allogenic B cells, in a 1/2 ratio, in the presence of 10 μM of peptide, for 16 hours.
The IFNγ-producing CD8+ cells are purified using a commercial kit (IFNγ secretion assay-cell enrichment and detection kit, Miltenyi Biotech). The cells thus purified are cultured for one week in complete medium supplemented with 20 IU/ml of IL-2 and 10 ng/ml of IL-7.
The response of these CD8+ cells to T2 cells loaded with one of the peptides p248V9, p248G9 or p248D9, or with a irrelevant peptide (HIVgag76), or to HLA-A*0201+MAGE-A+ tumor cells (M44 and M113) or HLA-A*0201+MAGE-A^− tumor cells (Caco-2), is evaluated by assaying the intracellular IFNγ production.
The CD8+ cells are incubated with the cells of the tumor line tested, in the presence of 20 μg/ml of Brefeldine-A (Sigma). […]
as §1

## CLGLSYDGLL [p174]
HLA-A*0201
  affinity for HLA-A*0201 (in words): low affinity

## TIWELMTFGG (listed as Homo sapiens) [HER4 911]
RMAS-HHD target cells
  CTL response (specific lysis) to RMAS-HHD cells loaded with the peptide: induce a CTL response
RMAS-HHD cells
  response of CD8+ cells of CTL line 1R5 to RMAS-HHD cells loaded with the peptide: response of the CD8+ cells of the CTL line 1R5

## TVWELMTFGA (listed as Homo sapiens) [HER2,3 911]
RMAS-HHD target cells
  CTL response (specific lysis) to RMAS-HHD cells loaded with the peptide: induce a CTL response
RMAS-HHD cells
  response of CD8+ cells of CTL line 1R5 to RMAS-HHD cells loaded with the peptide: response of the CD8+ cells of the CTL line 1R5

## TVWELMTFGS (listed as Homo sapiens) [HER1 911]
RMAS-HHD target cells
  CTL response (specific lysis) to RMAS-HHD cells loaded with the peptide: induce a CTL response
RMAS-HHD cells
  response of CD8+ cells of CTL line 1R5 to RMAS-HHD cells loaded with the peptide: response of the CD8+ cells of the CTL line 1R5

## YICTIDVYMV (not fully specified) [p945Y1V9]
HLA-A*0201
  RA (relative affinity for HLA-A*0201): >100

## YLAARNVLV (not fully specified) [p845Y]
HLA-A*0201
  RA (relative affinity for HLA-A*0201): >100

## YLEYRQVPD (listed as Homo sapiens) [p248D9]
HLA-A*0201
  affinity for HLA-A*0201 (in words): low affinity
HHD transgenic mice
  recognition of RMAS-HHD targets loaded with the native peptide by CTLs induced with the corresponding variant: also against the two native peptides
[1]
  response of p248V9-induced human CD8+ cells to T2 cells loaded with the peptide: a response of the CD8+ cells

## YLEYRQVPG (listed as Homo sapiens) [p248G9]
HLA-A*0201
  affinity for HLA-A*0201 (in words): low affinity
HHD transgenic mice
  recognition of RMAS-HHD targets loaded with the native peptide by CTLs induced with the corresponding variant: also against the two native peptides
[1]
  response of p248V9-induced human CD8+ cells to T2 cells loaded with the peptide: a response of the CD8+ cells

## YLFLWGPRA (not fully specified) [p262L2]
HHD transgenic mice; HHD mice, 100 μg s.c. in Freund's incomplete adjuvant, RMAS-HHD targets, effector/target 40/1
  CTL response generated by immunization with the variant peptide: induces CTLs capable of recognizing this peptide, but not the native p262 peptide

## YLLEKGERL (not fully specified) [p933Y]
HLA-A*0201
  RA (relative affinity for HLA-A*0201): >100

## YVKVLGSGV (not fully specified) [p722Y1V9]
HLA-A*0201
  RA (relative affinity for HLA-A*0201): >100

## YVWELMTFGV (not fully specified) [p911Y1V9]
RMAS-HHD target cells; CTL lines 1R5 and 2R5, targets loaded with 10 μM peptide
  CTLs generated by the variant peptide, killing of loaded RMAS-HHD target cells: generates CTLs which kill the RMAS-HHD target cells loaded with the variant peptide p911Y1V9, but also with the native peptides HER1 911, HER2,3 911 or HER4 911
RMAS-HHD target cells
  CTL response (specific lysis) to RMAS-HHD cells loaded with the peptide: induce a CTL response
RMAS-HHD cells; CTL line 1R5
  CTLs induced by the variant peptide, recognition by IFNγ production: induces CTLs capable of recognizing this variant peptide, but also the native peptides from which it is derived
RMAS-HHD cells
  response of CD8+ cells of CTL line 1R5 to RMAS-HHD cells loaded with the peptide: response of the CD8+ cells of the CTL line 1R5

## YVWSYGVTV (not fully specified) [p904Y]
HLA-A*0201
  RA (relative affinity for HLA-A*0201): >100

— patent US7419669B2, “Peptide epitopes common to antigens of the same multigene family” (Institut Gustave Roussy, priority 2002, dated 2008)
